According to patent publication US20250340571A1, “COMPOSITIONS USEFUL FOR MODULATING SPLICING” (Skyhawk Therapeutics, Inc., priority 2022, published 2025):

How the values were obtained:
[1] = system: ATXN3 pre-mRNA (transcripts containing exon 4); test: ATXN3 quantitative splicing assay (qPCR, E4E5 transcripts containing exon 4); format: cell-based; details: Homo sapiens; SK-N-MC cells, 24 h treatment, qPCR E4E5 primers/probe
Protocol: Human neuroblastoma SK-N-MC cells were plated in 384-well plates at 20,000 cells/well. Twenty-four hours after plating, cells were treated with compounds for 24 h at appropriate concentrations ranging from 30 μM to 0.6 nM (0.3% DMSO). Treated cells were lysed in 15 μL of lysis buffer, and cDNA was synthesized using the Fast Advanced Cells-to-Ct kit. Two μL of each cDNA was used in qPCR reactions to confirm the exon 4 skipped transcripts of ATXN3. A second set of primers/probe E4E5 was used to detect the transcripts containing exon 4. The third set of primers/probe E8E9 was used to detect total gene level of ATXN3. The qPCR reactions were prepared in 384-well plates in 10 μL volume, using TaqMan™ Fast Advanced Master Mix with primers and probes shown in the table below. Reactions were run in a Quant Studio 6 qPCR instrument with default settings.
The primers and probes are listed below in Table 5.

[2] = system: total ATXN3 protein; test: ATXN3 total protein assay (MSD); format: cell-based, human; details: SK-N-MC cells, 48 h incubation
Protocol: Human neuroblastoma SK-N-MC cells were seeded at 10,000 cells/well in 384 well plates one day prior to compound treatment. The concentrations of compounds were tested at appropriate doses ranging from 30 μM to 0.6 nM. After incubation for 48 hours, the cells were lysed with 25 μL of lysis buffer containing protease inhibitors, and total ATXN3 protein levels were assessed by Mesoscale Discovery (MSD) assay developed with one pair of anti-ATXN3 antibodies. The capture and detect antibodies were raised in mouse and rabbit respectively. Anti-rabbit MSD-ST antibody was used for secondary antibody.
ATXN3 recombinant protein was used for standards. The readouts were captured with 35 μL of MSD read buffer and multi-array 384-well high binding plates.

SMILES	IC50 [1]	IC50 [2]
C[C@H](N)Cc1sc2c(NCc3cccs3)snc2c1-n1cccn1 [Compound 3, 7-[(S)-2-aminopropyl]-8-(1-pyrazolyl)-4-thenylamino-3,6-dithia-2-azabicyclo[3.3.0]octa-1,4,7-triene]	10000 to 40000 nM	10000 to 40000 nM
C#Cc1c(C[C@H](C)N)sc2c(NCc3cccs3)snc12 [Compound 4, 5-[(2S)-2-aminopropyl]-6-ethynyl-N-(thiophen-2-ylmethyl)thieno[3,2-c][1,2]thiazol-3-amine]	101 to 500 nM	101 to 500 nM
C[C@H](N)Cc1sc2c(NCc3cccs3)snc2c1-c1ccncc1 [Compound 5, 7-[(S)-2-aminopropyl]-8-(4-pyridyl)-4-thenylamino-3,6-dithia-2-azabicyclo[3.3.0]octa-1,4,7-triene]	10000 to 40000 nM	10000 to 40000 nM
C[C@H](N)Cc1sc2c(NCc3cccs3)snc2c1-c1cccnc1 [Compound 6, 7-[(S)-2-aminopropyl]-8-(3-pyridyl)-4-thenylamino-3,6-dithia-2-azabicyclo[3.3.0]octa-1,4,7-triene]	10000 to 40000 nM	10000 to 40000 nM
C[C@H](N)Cc1sc2c(NCc3cccs3)snc2c1-c1ccccn1 [Compound 7, 5-[(2S)-2-aminopropyl]-6-(pyridin-2-yl)-N-(thiophen-2-ylmethyl)thieno[3,2-c][1,2]thiazol-3-amine]	10000 to 40000 nM	10000 to 40000 nM
C[C@H](N)Cc1sc2c(NCc3cccs3)snc2c1-n1ccnc1 [Compound 8, 5-[(2S)-2-aminopropyl]-6-(imidazol-1-yl)-N-(thiophen-2-ylmethyl)thieno[3,2-c][1,2]thiazol-3-amine]	10000 to 40000 nM	10000 to 40000 nM
C[C@H](N)Cc1sc2c(NCc3ccco3)snc2c1-c1ccncc1 [Compound 10, 7-[(S)-2-aminopropyl]-4-(furfurylamino)-8-(4-pyridyl)-3,6-dithia-2-azabicyclo[3.3.0]octa-1,4,7-triene]	10000 to 40000 nM	10000 to 40000 nM
C#Cc1c(C[C@H](C)N)sc2c(NCc3ccco3)snc12 [Compound 11, 7-[(S)-2-aminopropyl]-8-ethynyl-4-(furfurylamino)-3,6-dithia-2-azabicyclo[3.3.0]octa-1,4,7-triene]	0.01 to 100 nM	0.01 to 100 nM
C[C@H](N)Cc1sc2c(NCc3ccco3)snc2c1-c1cccnc1 [Compound 12, 7-[(S)-2-aminopropyl]-4-(furfurylamino)-8-(3-pyridyl)-3,6-dithia-2-azabicyclo[3.3.0]octa-1,4,7-triene]	10000 to 40000 nM	10000 to 40000 nM
C#Cc1c(C[C@@H](N)CO)sc2c(NCc3ccco3)snc12 [Compound 13, (R)-2-amino-3-{8-ethynyl-4-(furfurylamino)-3,6-dithia-2-azabicyclo[3.3.0]octa-1,4,7-trien-7-yl}-1-propanol]	0.01 to 100 nM	0.01 to 100 nM
C#Cc1c(C[C@@H](N)COC)sc2c(NCc3ccco3)snc12 [Compound 14, 7-[(R)-2-amino-3-methoxypropyl]-8-ethynyl-4-(furfurylamino)-3,6-dithia-2-azabicyclo[3.3.0]octa-1,4,7-triene]	501 to 5000 nM	501 to 5000 nM
C#Cc1c(C[C@@H](N)COC)sc2c(NCc3cccs3)snc12 [Compound 15, 7-[(R)-2-amino-3-methoxypropyl]-8-ethynyl-4-thenylamino-3,6-dithia-2-azabicyclo[3.3.0]octa-1,4,7-triene]	501 to 5000 nM	501 to 5000 nM
C[C@H](N)Cc1sc2c(NCc3cccs3)snc2c1-c1ncco1 [Compound 40, 7-[(S)-2-aminopropyl]-8-(1,3-oxazol-2-yl)-4-thenylamino-3,6-dithia-2-azabicyclo[3.3.0]octa-1,4,7-triene]	501 to 5000 nM	501 to 5000 nM

Results, then the molecule that gave them:

IC50 [1]	IC50 [2]	SMILES
0.01 to 100 nM	0.01 to 100 nM	C#Cc1c(C[C@@H](N)CO)sc2c(NCc3cccs3)snc12 [Compound 16, (R)-2-amino-3-(8-ethynyl-4-thenylamino-3,6-dithia-2-azabicyclo[3.3.0]octa-1,4,7-trien-7-yl)-1-propanol]
101 to 500 nM	501 to 5000 nM	C#Cc1c(C[C@@H](N)CF)sc2c(NCc3cccs3)snc12 [Compound 17, 7-[(R)-2-amino-3-fluoropropyl]-8-ethynyl-4-thenylamino-3,6-dithia-2-azabicyclo[3.3.0]octa-1,4,7-triene]
101 to 500 nM	101 to 500 nM	C#Cc1c(C[C@@H](N)[C@H](C)F)sc2c(NCc3cccs3)snc12 [Compound 19, 5-[(2R,3S)-2-amino-3-fluorobutyl]-6-ethynyl-N-(thiophen-2-ylmethyl)thieno[3,2-c][1,2]thiazol-3-amine]
101 to 500 nM	0.01 to 100 nM	C#Cc1c(C[C@@H](N)[C@H](C)F)sc2c(NCc3nccs3)snc12 [Compound 22, 7-[(2R,3S)-2-amino-3-fluorobutyl]-8-ethynyl-4-{[(1,3-thiazol-2-yl)methyl]amino}-3,6-dithia-2-azabicyclo[3.3.0]octa-1,4,7-triene]
101 to 500 nM	501 to 5000 nM	C#Cc1c(C[C@@H](N)CF)sc2c(NCc3ccco3)snc12 [Compound 23, 7-[(R)-2-amino-3-fluoropropyl]-8-ethynyl-4-(furfurylamino)-3,6-dithia-2-azabicyclo[3.3.0]octa-1,4,7-triene]
101 to 500 nM	501 to 5000 nM	C#Cc1c(C[C@@H](N)[C@@H](C)F)sc2c(NCc3ccco3)snc12 [Compound 24, 7-[(2R,3R)-2-amino-3-fluorobutyl]-8-ethynyl-4-(furfurylamino)-3,6-dithia-2-azabicyclo[3.3.0]octa-1,4,7-triene]
101 to 500 nM	101 to 500 nM	C#Cc1c(C[C@@H](N)[C@H](C)F)sc2c(NCc3ccco3)snc12 [Compound 25, 7-[(2R,3S)-2-amino-3-fluorobutyl]-8-ethynyl-4-(furfurylamino)-3,6-dithia-2-azabicyclo[3.3.0]octa-1,4,7-triene]
10000 to 40000 nM	10000 to 40000 nM	C#Cc1c(C[C@@H](N)COC)sc2c(NCc3ccccc3)snc12 [Compound 30, 7-[(R)-2-amino-3-methoxypropyl]-4-benzylamino-8-ethynyl-3,6-dithia-2-azabicyclo[3.3.0]octa-1,4,7-triene]
101 to 500 nM	101 to 500 nM	C#Cc1c(C[C@@H](N)CC2CC2)sc2c(NCc3ccco3)snc12 [Compound 32, 7-[(S)-2-amino-3-cyclopropylpropyl]-8-ethynyl-4-(furfurylamino)-3,6-dithia-2-azabicyclo[3.3.0]octa-1,4,7-triene]
501 to 5000 nM	501 to 5000 nM	C#Cc1c(C[C@@H](N)CC2CC2)sc2c(NCc3cccs3)snc12 [Compound 33, 7-[(S)-2-amino-3-cyclopropylpropyl]-8-ethynyl-4-thenylamino-3,6-dithia-2-azabicyclo[3.3.0]octa-1,4,7-triene]
501 to 5000 nM	501 to 5000 nM	C#Cc1c(C[C@@H](N)COC2CC2)sc2c(NCc3cccs3)snc12 [Compound 34, 7-[(R)-2-amino-3-cyclopropoxypropyl]-8-ethynyl-4-thenylamino-3,6-dithia-2-azabicyclo[3.3.0]octa-1,4,7-triene]
501 to 5000 nM	501 to 5000 nM	C#Cc1c(C(F)(F)[C@H](C)N)sc2c(NCc3cccs3)snc12 [Compound 35, 7-[(S)-2-amino-1,1-difluoropropyl]-8-ethynyl-4-thenylamino-3,6-dithia-2-azabicyclo[3.3.0]octa-1,4,7-triene]
501 to 5000 nM	501 to 5000 nM	C#Cc1c(C[C@@H](N)C(F)F)sc2c(NCc3ccco3)snc12 [Compound 37, 7-[(R)-2-amino-3,3-difluoropropyl]-8-ethynyl-4-(furfurylamino)-3,6-dithia-2-azabicyclo[3.3.0]octa-1,4,7-triene]
501 to 5000 nM	501 to 5000 nM	C[C@H](F)[C@H](N)Cc1sc2c(NCc3cccs3)snc2c1-c1ncco1 [Compound 41, 7-[(2R,3S)-2-amino-3-fluorobutyl]-8-(1,3-oxazol-2-yl)-4-thenylamino-3,6-dithia-2-azabicyclo[3.3.0]octa-1,4,7-triene]
